IC50 data for one compound are collected here from paper PMC5485972, “N-Caffeoyltryptamine, a Potent Anti-Inflammatory Phenolic Amide, Suppressed MCP-1 Expression in LPS-stimulated THP-1 Cells and Rats Fed a High-Fat Diet” (International Journal of Molecular Sciences, 2017).

The target in experiment [1] is T1, p38 MAP kinase β (Homo sapiens, UniProt Q15759).
T1 construct: gene MAPK11
Description: Promega CMGC-1 kinase selectivity profiling system, ADP-Glo kinase assay. The class given is biochemical. (In general: ADP-Glo turns the ADP formed in a reaction into a luminescent signal.)

Experiment [2] has as its target T2, p38 MAP kinase α (Homo sapiens, UniProt Q16539).
T2 construct: gene MAPK14
The description is as above. The class given is biochemical.

T2 sequence (Q16539 2-360): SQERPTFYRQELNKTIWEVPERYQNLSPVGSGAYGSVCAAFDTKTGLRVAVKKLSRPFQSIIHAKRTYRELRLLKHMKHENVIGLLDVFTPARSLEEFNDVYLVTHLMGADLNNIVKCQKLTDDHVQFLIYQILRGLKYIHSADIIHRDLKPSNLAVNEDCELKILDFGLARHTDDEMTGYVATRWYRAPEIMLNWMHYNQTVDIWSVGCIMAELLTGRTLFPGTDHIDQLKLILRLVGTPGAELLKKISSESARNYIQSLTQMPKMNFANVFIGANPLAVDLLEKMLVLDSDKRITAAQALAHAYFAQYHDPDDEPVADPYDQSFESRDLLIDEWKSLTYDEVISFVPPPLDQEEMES
T1 sequence (Q15759 whole entry): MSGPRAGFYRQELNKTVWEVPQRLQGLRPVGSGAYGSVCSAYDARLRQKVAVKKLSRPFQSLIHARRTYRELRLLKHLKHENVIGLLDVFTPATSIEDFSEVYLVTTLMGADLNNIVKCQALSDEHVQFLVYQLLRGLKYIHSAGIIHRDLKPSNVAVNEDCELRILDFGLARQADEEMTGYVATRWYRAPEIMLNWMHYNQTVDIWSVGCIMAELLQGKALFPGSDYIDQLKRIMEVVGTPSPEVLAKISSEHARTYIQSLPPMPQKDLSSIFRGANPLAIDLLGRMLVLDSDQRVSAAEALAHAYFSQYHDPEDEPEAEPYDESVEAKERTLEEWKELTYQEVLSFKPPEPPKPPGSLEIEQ

For the compound `O=C(/C=C/c1ccc(O)c(O)c1)NCCc1c[nH]c2ccccc12` [N-caffeoyltryptamine], the IC50 in experiment [1] amounted to 18.3 µM; in experiment [2], 16.7 µM.

As usually defined, the IC50 is the midpoint of a concentration-inhibition curve. A low value points to greater potency.
